How the values were obtained:
[1] = xn = mol fraction of the nth substance listed; settings: 101 kPa, Liquid
[2] = 101.3 kPa, Liquid

CCOC(=O)CC(=O)OCC [diethyl 1,3-propanedioate] + CO
mass density [kg/m3], [1]
Settings	288.15 K	298.15 K	313.15 K	328.15 K
x1 = 0.05	841.286	831.536	816.754	801.691
x1 = 0.1	876.23	866.252	851.13	835.697
x1 = 0.1501	904.185	894.037	878.631	862.956
x1 = 0.2001	926.962	916.671	901.091	885.223
x1 = 0.2501	945.901	935.504	919.763	903.75
x1 = 0.3001	961.96	951.502	935.636	919.517
x1 = 0.35	975.573	965.04	949.084	932.879
x1 = 0.4001	987.417	976.822	960.784	944.523
x1 = 0.4503	997.752	987.12	971.04	954.725
x1 = 0.5004	1006.9	996.235	980.1	963.763
x1 = 0.5497	1014.88	1004.18	988.016	971.649
x1 = 0.6	1022.04	1011.32	995.132	978.761
x1 = 0.6495	1028.48	1017.74	1001.52	985.159
x1 = 0.6997	1034.33	1023.59	1007.37	991.006
x1 = 0.7978	1044.36	1033.61	1017.38	1001.07
x1 = 0.9009	1053.15	1042.39	1026.22	1009.98
x1 = 1	1060.33	1049.6	1033.5	1017.34

CCO [ethanol]
[2]
Settings	mass density [kg/m3]
288.15 K	794.044
298.15 K	785.489
313.15 K	772.42
328.15 K	758.958

CCO [ethanol] + CCOC(=O)CC(=O)OCC
[1], x2 = 0
Settings	mass density [kg/m3]
288.15 K	794.044
298.15 K	785.489
313.15 K	772.42
328.15 K	758.958

CO [methanol]
[2]
Settings	mass density [kg/m3]
288.15 K	796.406
298.15 K	786.987
313.15 K	772.74
328.15 K	758.201

CO [methanol] + CCOC(=O)CC(=O)OCC
[1], x2 = 0
Settings	mass density [kg/m3]
288.15 K	796.406
298.15 K	786.987
313.15 K	772.74
328.15 K	758.201

CCCCCO [pentan-1-ol]
[2]
Settings	mass density [kg/m3]
288.15 K	818.801
298.15 K	811.465
313.15 K	800.264
328.15 K	788.737

CCCCCO [pentan-1-ol] + CCOC(=O)CC(=O)OCC
[1], x2 = 0
Settings	mass density [kg/m3]
288.15 K	818.801
298.15 K	811.465
313.15 K	800.264
328.15 K	788.737

CCCO [propan-1-ol]
[2]
Settings	mass density [kg/m3]
288.15 K	809.009
298.15 K	800.973
313.15 K	788.687
328.15 K	775.974

CCCO [propan-1-ol] + CCOC(=O)CC(=O)OCC
[1], x2 = 0
Settings	mass density [kg/m3]
288.15 K	809.009
298.15 K	800.973
313.15 K	788.687
328.15 K	775.974

CC(C)O [propan-2-ol]
[2]
Settings	mass density [kg/m3]
288.15 K	789.342
298.15 K	780.99
313.15 K	767.922
328.15 K	754.001

CC(C)O [propan-2-ol] + CCOC(=O)CC(=O)OCC
[1], x2 = 0
Settings	mass density [kg/m3]
288.15 K	789.342
298.15 K	780.99
313.15 K	767.922
328.15 K	754.001

Reference: the NIST ThermoML archive (doi:10.1021/je100100n)
